Measured values: patent US20140323488A1, “DISUBSTITUTED TRIAZINE DIMERS FOR TREATMENT AND/OR PREVENTION OF INFECTIOUS DISEASES” (Universiteit Antwerpen, priority 2011, published 2014)

Assays:
Assay type in all cases: cell-based
[1] = tested on: HIV-1 BaL; test: TZM-bl assay, anti-HIV-1 activity; conditions: read-out: EC50 (50% effective concentration), anti-HIV-1 activity; TZM-bl cells
Procedure: The JC53-BL cell line, also known as the TZM-bl cell line (NIH AIDS Research and Reference Reagent Program, Germantown, USA), was used for the evaluation of anti-HIV activity. […] The resulting cell suspension was washed with an equivalent amount of TZM-bl medium and subsequently seeded in a T75 culture flask (Greiner Bio-One, Germany) at 10^6 cells in 20 mL medium.
The antiviral activity of the newly designed compounds was measured by pre-incubating ten thousand TZM-bl cells (at 10^5 cells/mL in culture medium supplemented with 30 μg/mL DEAE dextran) in a 96-well plate for 30 minutes at 37° C., 5% CO2 in the presence or absence of serial dilutions of the respective compound. Subsequently, 200 TCID50 of HIV-1 BaL was added to each well and cultures were incubated for 48 hours before quantifying luciferase activity, using a TriStar LB941 luminometer (Berthold Technologies GmbH & Co. KG, Bad Wildbad, Germany). Each condition was evaluated in triplicate wells and in at least two independent experiments. The antiviral activity of the compound was expressed as the percentage of viral inhibition compared to the untreated controls and subsequently plotted against the compound concentration.

[2] = tested on: Human lung fibroblast MRC-5SV2 cells; test: Cytotoxicity assay on MRC-5SV2 cells (resazurin)
Procedure: Assays were performed in 96-well microtiter plates, each well containing 1×10^4 cells. […] After incubation for 72 h in a humidified atmosphere (37° C., 5% CO2) and addition of resazurin, the cell viability was assessed fluorimetrically (λex 550 nm, λem 590 nm). The results were expressed as % reduction in cell growth/viability compared to untreated control wells and IC50 values were determined. Tamoxifen was included as reference drug.

[3] = tested on: P. falciparum; test: In vitro anti-Plasmodium falciparum activity; conditions: read-out: Pf-K1 IC50
Procedure: In Vitro Anti-Plasmodium falciparum Activity
All cultures and assays were conducted under a humidified atmosphere (37° C., 4% CO2, 3% O2 and 93% N2) with the assay being an adaptation of the procedure described by Desjardins et al. (12). Assays were performed in 96-well microtiter plates, each well containing 10 μL of the watery extract dilutions together with 190 μL of the malaria parasite inoculum (1% parasitemia, 2% hematocrit). After incubation for 72 h at 37° C., the plates were frozen and stored at −20° C. Upon thawing, 20 μL of each well was transferred into another plate together with 100 μL Malstat® reagent and 20 μL of a 1/1 mixture of PES (phenazine ethosulphate, 2 mg/mL) and NBT (Nitro Blue Tetrazolium Grade III, 0.1 mg/ml). […] The results were expressed as % reduction in parasitemia compared to control wells. The extracts were tested using five 4-fold dilutions starting with 64 μg/mL. Chloroquine was included as reference drug.

[4] = tested on: Trypanosoma b. brucei Squib 427; test: In vitro anti-Trypanosoma brucei brucei activity; conditions: read-out: T. bruc. IC50
Procedure: In Vitro Anti-Trypanosoma brucei brucei Activity:
After incubation in a humidified atmosphere (37° C., 5% CO2) for 72 h, resazurin was added for another 24 h and parasite growth was assessed fluorimetrically (λex 550 nm, λem 590 nm). […] Suramin was included as reference drug.

[5] = tested on: T. rhodesiense (strain STIB-900); test: In vitro anti-Trypanosoma brucei rhodesiense activity; conditions: read-out: T. rhod. IC50
Procedure: In Vitro Anti-Trypanosoma brucei rhodesiense Activity
T. rhodesiense (strain STIB-900) was maintained in HMI-9-medium, supplemented with 10% heat-inactivated FBS. Assays were performed in 96-well microtiter plates, each well containing 10 μL of the extract dilution together with 190 μL of the parasite suspension (2×10^4 parasites/mL). After incubation in a humidified atmosphere (37° C., 5% CO2) for 72 h, resazurin was added for another 6 h and parasite growth was assessed fluorimetrically (λex 550 nm, λem 590 nm). […] Suramin was included as reference drug.

[6] = tested on: Leishmania infantum MHOM/MA (BE)/67; test: In vitro anti-Leishmania infantum activity; conditions: read-out: L. inf. IC50
Procedure: In Vitro Anti-Leishmania infantum Activity
Leishmania infantum MHOM/MA (BE)/67 was maintained in the golden hamster and spleen amastigotes were collected for preparing infection inocula. Primary peritoneal mouse macrophages were used as host cells and collected 48 h after peritoneal stimulation with a 2% potato starch suspension. […] After incubation for 120 h in a humidified atmosphere (37° C., 5% CO2), total parasite burdens were microscopically assessed after Giemsa staining. The results were expressed as % reduction in parasite burden compared to untreated control wells and IC50 values were calculated. The extracts were tested using five fourfold dilutions starting with 64 μg/mL.

[7] = tested on: TZM-bl cells; test: WST-1 cytotoxicity assay; conditions: read-out: CC50 (50% cytotoxic concentration)
Text: The Water Soluble Tetrazolium-1 (WST-1) Cell Proliferation Assay is a colorimetric assay for the measurement of cell proliferation and viability. The assay is based on the cleavage of the tetrazolium salt WST-1 (4-[3-(4-iodophenyl)-2-(4-nitrophenyl)-2H-5-tetrazolio]-1,3-benzene disulfonate) to a formazan dye by a complex cellular mechanism. This bioreduction is largely dependent on the glycolytic production of NAD(P)H in viable cells. Therefore, the amount of formazan dye formed correlates directly to the number of viable cells in the culture, and can be quantified by measuring the absorbance at 450 nm in a multiwell plate reader. The greater the number of viable cells, the greater the amount of formazan dye produced following the addition of WST-1. Cytotoxicity of each compound was evaluated using this WST-1 viability assay, according to the manufacturer's instructions (Roche, Vilvoorde, Belgium).
Briefly, ten thousand TZM-bl cells were seeded in a 96-well plate and cultured for 2 days in the presence of a serial dilution of compound. After this 48 h exposure, Cell Proliferation Reagent, WST-1, was added and absorbance at 450 nm was quantified after 90 min using a microplate reader (BioRad, Tokio, Japan). Each compound was tested in three replicate wells and in at least two independent experiments.

[8] = target: Trypanosoma cruzi, Tulahuen CL2, β galactosidase strain; test: In vitro anti-Trypanosoma cruzi activity; conditions: read-out: T. cruz. IC50
Procedure: In Vitro Anti-Trypanosoma cruzi Activity
All cultures and assays were conducted under a humidified atmosphere (37° C., 5% CO2). […] The change in color was measured spectrophotometrically at 540 nm after 4 h at 37° C. […] Benznidazole was included as reference drug.

Cc1cc(C)c(Nc2nc(Nc3ccc(C#N)cc3)nc(Nc3ccc(Nc4nc(Nc5ccc(C#N)cc5)nc(Nc5c(C)cc(C)cc5C)n4)cc3)n2)c(C)c1 [T12, 4,4′-((6,6′-(1,4-phenylenebis(azanediyl))bis(4-(mesitylamino)-1,3,5-triazine-6,2-diyl))bis(azanediyl))dibenzonitrile]
EC50 [1]: 0.167 µM
cytotoxicity in comparison with monomer I5 [2]: no cytotoxicity
IC50 ([2]; human cell line MRC5): > 64 µM
IC50 [3]: > 64 µM
IC50 [4]: 0.53 µM
IC50 [5]: 0.02 µM
IC50 [6]: > 64 µM
CC50 [7]: > 100 µM
IC50 [8]: > 64 µM
